Paper PMC11436104 (Toxins, 2024)
Values joined by “and” are separate entries in the source; they are usually repeats but may differ in a detail not shown here. Equal entries are not always repeated. Where two headings read alike, the source gives them in different places. *1 amine or outer side, *2 acyl side, *3 side chain or, on linkers, in order; H or OH if unused. Where a SMILES comes first, the peptide text is derived from it. Bridges are numbered along the chain shown (N, C = ends). [ ]: non-standard residue; d: D form. Adda = CO[C@@H](Cc1ccccc1)[C@@H](C)/C=C(C)/C=C/[C@H](N[*:1])[C@H](C)C(=O)[*:2]; dAsp(3S-Me) = C[C@H](C(=O)[*:3])[C@@H](N[*:1])C(=O)[*:2]; d(γGlu) = O=C(O)[C@@H](CCC(=O)[*:2])N[*:1]; hTyr = N[C@@H](CCc1ccc(O)cc1)C(=O)O; NMeA = CN[C@@H](C)C(=O)O; NMeDha = C=C(NC)C(=O)O; CO = O=C([*:1])[*:2]

Tests used:
[1] = target: T1, Ser/Thr protein phosphatase type-1 (PP1; α isoform catalytic subunit) (Oryctolagus cuniculus, UniProt P62139); test: Colorimetric protein phosphatase inhibition assay, p-nitrophenyl phosphate substrate; format: biochemical, rabbit
T1 construct: purchased Sigma 539493; host or cells: Escherichia coli
Description: The inhibition of Ser/Thr protein phosphatases by the CCPs was measured using the colorimetric inhibition assay described by An and Carmichael and Gkelis et al., with some modifications. […] Enzymes, PP1 and PP2A, were diluted in reaction buffer #1 (50 mM Tris-HCl, 1.0 g/L bovine serum albumin, 1.0 mM MnCl2, 2.0 mM dithiothreitol, pH 7.4), and p-nitrophenyl phosphate was prepared in substrate buffer (0.1 M glycine, pH 10.4, 1 mM MgCl2, 1 mM ZnCl2). The assay was performed by the addition of each CCP (as a potential inhibitor; final concentrations, 0.1, 1, 10, and 100 µM) to the enzyme solution (i.e., PP1 and PP2A; final concentrations, 1 U/well and 0.01 U/well, respectively, where 1 U hydrolyzes 1 nmole of substrate per minute at pH 7.4 at 30 °C). After a few seconds of gentle shaking, the microplate was kept at room temperature for 5 min, followed by the addition of reaction buffer #2 (50 mM Tris-HCl, 0.5 g/L bovine serum albumin, 0.2 mM MnCl2, 20 mM MgCl2, and pH 8.1) for PP1, or reaction buffer #1 for PP2A. The reactions were started by the addition of p-nitrophenyl phosphate (final concentrations, 15 mM for PP1 and 10 mM for PP2A) and were carried out for 120 min at 37 °C. The hydrolysis of p-nitrophenyl phosphate to […] was recorded at 405 nm using a microplate reader (Tecan, Austria). The inhibition percentages (X) were calculated from the absorbances of the samples after incubation for 30 min, as according to Equation (1):X (%) = (APP − AS)/APP × 100,(1) where APP is the absorbance of the control sample (i.e., enzyme only), and AS is the absorbance of the test sample (i.e., enzyme with potential inhibitor). […] All measurements were repeated a minimum of three independent times, with five technical replicates per experiment. IC50 values are expressed as means ± SD.

[2] = system: NHAs (normal human astrocytes); test: MTT metabolic activity / cell viability; format: cell-based
Description: Normal human astrocytes (NHAs; Lonza, Walkersville, MD, USA) were grown and maintained in monolayer cultures in Dulbecco’s modified Eagle’s medium (DMEM; Sigma) supplemented with 10% fetal bovine serum (Euroclone, Pero, MI, Italy), 1% penicillin/streptomycin (Euroclone), 2 mM L-glutamine (Euroclone), and 20 mM Hepes (Invitrogen, Carlsbad, CA, USA). The U87-MG human glioblastoma cells (U87-MG cells; American Type Culture Collection, Manassas, VA, USA) were grown and maintained in monolayer cultures in DMEM supplemented with 10% fetal bovine serum, 1% penicillin/streptomycin, 4 mM L-glutamine, and 1% non-essential amino acids (Sigma).
Cell viability was determined using the 3-(4,5-dimethylthiazolyl-2)-2,5-diphenyltetrazolium bromide (MTT) assay, as according to Mosmann. This assay measures the conversion of MTT to its insoluble formazan by the dehydrogenase enzymes of the intact mitochondria of living cells. […]; Nunclon; Nunc, Naperville, IL, USA) and incubated for 16 h at 37 °C for attachment. The cell-growth medium was then replaced by fresh medium containing 0, 0.1, 1, and 10 µM of each CCP and incubated for an additional 24 h. These experiments were performed without using dimethylsulphoxide to best retain the original permeability of the cell membranes. Each experiment included the negative control of cell-growth medium with no additions. Following incubation (CO2 incubator), 20 μL 5 mg/mL MTT was added to each well. The plates were incubated for another 3 h. […] The amount of formazan, which is proportional to the metabolic activity of cells, was quantified spectrophotometrically at 570 nm (reference filter wavelength, 690 nm) using a microplate reader (Synergy MX; BioTek, Winooski, VT, USA). The metabolic activity of the cells was determined by comparing the optical densities of the CCP-treated cells with those of the negative control. Five replicates per concentration and three independent experiments were performed. Student’s t-tests were used to analyze the differences between the treated and control cells using Prism 5 software (GraphPad, Inc., La Jolla, CA, USA), where p < 0.05 was considered to be statistically significant.

ACTB = test: Gene expression by quantitative real-time PCR in NHA; format: cell-based, human
Description: (§1) Cells were seeded onto 6-well plates, left to attach for 16 h, and treated with each non-hCCP separately (0.1–10 µM) and the hepatotoxic MC-LR (0.01–1 µM) for 24 h at 37 °C in the CO2 incubator. The total RNA from the cells (0.5–1.0 × 10^6 cells) was isolated using the TRIzol reagent (Invitrogen), and the cDNA was synthesized using 1 μg total RNA with cDNA high-capacity archive kits (Applied Biosystems, Foster City, CA, USA), according to the manufacturer’s protocol.
(§2) The expression levels of TUBA1A, ACTB, NES, and GFAP were quantified using quantitative real-time PCR (ABI 7900 HT Sequence Detection System; Applied Biosystems). TaqMan Universal PCR Master Mix and the following TaqMan Gene Expression Assays were used: TUBA1A: tubulin, alpha 1a, Hs00362387_m1; ACTB: actin, beta, Hs99999903_m1; NES, nestin, Hs00707120_s1; and GFAP, glial fibrillary acidic protein, and Hs00157674_m1 (all from Applied Biosystems). Amplification of a glyceraldehyde 3-phosphate dehydrogenase probe GAPDH (Human Endogenous Controls, Cat. # 4310884E; Applied Biosystems) was performed as an internal control. The conditions for the quantitative real-time PCR were as follows: 50 °C for 2 min, 95 °C for 10 min, 40 cycles of 95 °C for 15 s, and 60 °C for 1 min.
(§3) The data obtained from the TaqMan Gene Expression Assays were analyzed using the ΔΔCt algorithm. Two replicates per concentration and three independent experiments were performed. The statistical significance between the controls and the treated groups was determined using two-tailed Student’s t-tests, where p < 0.05 was statistically significant. In addition, the relative expression was normalized to the housekeeping gene GAPDH (relative quantification), with at least three sample concentrations used for each gene in both untreated cell lines.

GFAP = test: as above; format: cell-based, human
Description: as §1, §2, §3

NES = test: as above; format: cell-based, human
Description: as §1, §2, §3

TUBA1A [3] = test: as above; format: cell-based, human
Description: as §1, §2, §3

TUBA1A [4] = test: Gene expression by quantitative real-time PCR in U-87MG cells; format: cell-based, human
Description: as §1, §2, §3

[5] = means ± SD, p-nitrophenyl phosphate 15 mM
[6] = NHA, 0.1 µM CCP, 24 h, relative to non-treated control
[7] = NHA, 1 µM CCP, 24 h, relative to non-treated control
[8] = NHA, 10 µM CCP, 24 h, relative to non-treated control
[9] = U-87MG, 0.1 µM CCP, 24 h, relative to non-treated control
[10] = U-87MG, 1 µM CCP, 24 h, relative to non-treated control
[11] = U-87MG, 10 µM CCP, 24 h, relative to non-treated control

T1 sequence (P62139 whole entry, canonical isoform): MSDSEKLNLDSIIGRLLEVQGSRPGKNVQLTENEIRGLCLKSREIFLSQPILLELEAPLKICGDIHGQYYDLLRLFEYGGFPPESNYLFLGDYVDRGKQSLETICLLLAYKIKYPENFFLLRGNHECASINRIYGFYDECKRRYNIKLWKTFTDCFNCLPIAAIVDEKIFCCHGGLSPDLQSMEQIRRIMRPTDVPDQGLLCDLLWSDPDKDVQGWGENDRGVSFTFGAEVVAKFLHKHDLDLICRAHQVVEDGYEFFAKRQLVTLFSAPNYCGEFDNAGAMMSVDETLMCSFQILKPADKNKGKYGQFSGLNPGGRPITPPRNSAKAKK

CC[C@H](C)[C@@H]1NC(=O)[C@H](Cc2ccc(OC)cc2)N(C)C(=O)[C@H]([C@@H](C)O)N2C(=O)[C@H](CC[C@H]2O)NC(=O)[C@H](CC(C)C)NC(=O)[C@@H](NC(=O)[C@H](CCC(N)=O)NC(=O)[C@H](CCc2ccc(O)cc2)NC(=O)[C@@H](O)CO)[C@@H](C)OC1=O
IC50 [1, 5]: 132 ± 87.5 µM
metabolic activity vs control ([2]; NHAs, up to 10 µM, 24 h): no significant changes from the control
Changes in gene expression of ACTB (ACTB; [6]): 0.949 ± 0.140
Changes in gene expression of ACTB (ACTB; [7]): 0.988 ± 0.147
Changes in gene expression of ACTB (ACTB; [8]): 1.162 ± 0.251
Changes in gene expression of GFAP (GFAP; [6]): 1.051 ± 0.351
Changes in gene expression of GFAP (GFAP; [7]): 0.947 ± 0.101
Changes in gene expression of GFAP (GFAP; [8]): 1.119 ± 0.240
Changes in gene expression of NES (NES; [6]): 1.262 ± 0.077
Changes in gene expression of NES (NES; [7]): 1.203 ± 0.196
Changes in gene expression of NES (NES; [8]): 1.370 ± 0.208
Changes in gene expression of TUBA1A (TUBA1A [3]; [6]): 0.940 ± 0.162
Changes in gene expression of TUBA1A (TUBA1A [3]; [7]): 0.824 ± 0.128
Changes in gene expression of TUBA1A (TUBA1A [3]; [8]): 1.000 ± 0.141
Changes in gene expression of TUBA1A (TUBA1A [4]; [9]): 1.124 ± 0.050
Changes in gene expression of TUBA1A (TUBA1A [4]; [10]): 1.094 ± 0.172
Changes in gene expression of TUBA1A (TUBA1A [4]; [11]): 1.171 ± 0.049

C=C1C(=O)N[C@H](C)C(=O)N[C@@H](CC(C)C)C(=O)N[C@@H](C(=O)O)[C@H](C)C(=O)N[C@@H](CCCNC(=N)N)C(=O)N[C@@H](/C=C/C(C)=C/[C@H](C)[C@H](Cc2ccccc2)OC)[C@H](C)C(=O)N[C@@H](C(=O)O)CCC(=O)N1C [MC-LR, Microcystin-LR, reference compound] (R[Adda][d(γGlu)][NMeDha][dA]L[dAsp(3S-Me)]-OH; lactam N-7)
IC50 [1]: 0.005 ± 0.0016 µM
metabolic activity vs control [2]: significantly decreased
cytotoxicity ([2]; 10 µM, read-out: cell viability lower than the control): ~20%
Changes in gene expression of ACTB (ACTB): 1.866 ± 0.844 and 1.071 ± 0.437
Changes in gene expression of GFAP (GFAP): 1.395 ± 0.312 and 1.453 ± 0.279
Changes in gene expression of NES (NES): 0.917 ± 0.067 and 1.266 ± 0.250
Changes in gene expression of TUBA1A (TUBA1A [3]): 0.957 ± 0.046 and 0.941 ± 0.025
Changes in gene expression of TUBA1A (TUBA1A [4]): 1.031 ± 0.064 and 0.983 ± 0.099

CC(C)[C@@H]1NC(=O)[C@H](NC(=O)N[C@@H](CCCNC(=N)N)C(=O)O)CCCCNC(=O)[C@H](Cc2ccccc2)NC(=O)[C@H](C)N(C)C(=O)[C@H](CCc2ccc(O)cc2)NC1=O [anabaenopeptin B] ({Arg-CO}-[dK]V[hTyr][NMeA]F; lactam 1-C)
IC50 [1, 5]: 9.5 ± 0.9 µM
metabolic activity vs control ([2]; NHAs, up to 10 µM, 24 h): no significant changes from the control
Changes in gene expression of ACTB (ACTB; [6]): 1.175 ± 0.386
Changes in gene expression of ACTB (ACTB; [7]): 0.935 ± 0.157
Changes in gene expression of ACTB (ACTB; [8]): 0.934 ± 0.166
Changes in gene expression of GFAP (GFAP; [6]): 1.053 ± 0.124
Changes in gene expression of GFAP (GFAP; [7]): 1.434 ± 0.180
Changes in gene expression of GFAP (GFAP; [8]): 0.918 ± 0.204
Changes in gene expression of NES (NES; [6]): 1.361 ± 0.291
Changes in gene expression of NES (NES; [7]): 1.221 ± 0.338
Changes in gene expression of NES (NES; [8]): 1.388 ± 0.313
Changes in gene expression of TUBA1A (TUBA1A [3]; [6]): 1.082 ± 0.219
Changes in gene expression of TUBA1A (TUBA1A [3]; [7]): 0.807 ± 0.100
Changes in gene expression of TUBA1A (TUBA1A [3]; [8]): 0.895 ± 0.119
Changes in gene expression of TUBA1A (TUBA1A [4]; [9]): 1.131 ± 0.031
Changes in gene expression of TUBA1A (TUBA1A [4]; [10]): 1.098 ± 0.192
Changes in gene expression of TUBA1A (TUBA1A [4]; [11]): 1.429 ± 0.068

CC[C@H](C)[C@@H]1NC(=O)[C@H](NC(=O)N[C@@H](CCCNC(=N)N)C(=O)O)CCCCNC(=O)[C@H](Cc2ccccc2)NC(=O)[C@H](C)N(C)C(=O)[C@H](CCc2ccc(O)cc2)NC1=O [anabaenopeptin F] ({Arg-CO}-[dK]I[hTyr][NMeA]F; lactam 1-C)
IC50 [1, 5]: 28.2 ± 3.4 µM
metabolic activity vs control ([2]; NHAs, up to 10 µM, 24 h): no significant changes from the control
Changes in gene expression of ACTB (ACTB; [6]): 0.824 ± 0.227
Changes in gene expression of ACTB (ACTB; [7]): 1.121 ± 0.167
Changes in gene expression of ACTB (ACTB; [8]): 0.890 ± 0.184
Changes in gene expression of GFAP (GFAP; [6]): 1.326 ± 0.507
Changes in gene expression of GFAP (GFAP; [7]): 0.846 ± 0.211
Changes in gene expression of GFAP (GFAP; [8]): 1.167 ± 0.250
Changes in gene expression of NES (NES; [6]): 1.345 ± 0.205
Changes in gene expression of NES (NES; [7]): 1.449 ± 0.171
Changes in gene expression of NES (NES; [8]): 1.381 ± 0.173
Changes in gene expression of TUBA1A (TUBA1A [3]; [6]): 0.941 ± 0.186
Changes in gene expression of TUBA1A (TUBA1A [3]; [7]): 1.144 ± 0.291
Changes in gene expression of TUBA1A (TUBA1A [3]; [8]): 0.826 ± 0.036
Changes in gene expression of TUBA1A (TUBA1A [4]; [9]): 1.016 ± 0.098
Changes in gene expression of TUBA1A (TUBA1A [4]; [10]): 1.023 ± 0.160
Changes in gene expression of TUBA1A (TUBA1A [4]; [11]): 1.354 ± 0.126
